Where a name gives a salt, the structure may show the parent alone.
Legend:
[1] = tested on: E. faecium, MRSA and S. epidermidis; assay: Mitigating effects of iron on biofilm formation inhibition; type: cell-based; conditions: increasing Fe(II) concentration, 10.0 μM FeSO4, hydrochloride
Method: Next the mechanistic basis of how compound 3 was able to inhibit and disperse bacterial biofilms was investigated. Iron levels are known to effect Gram-positive biofilm development (Deighton, M.; Borland, R. Infection and Immunity 1993, 61, 4473-4479) and were deemed a plausible driver of the observed anti-biofilm activity. To examine Fe(II) related antibiofilm behavior, a dose-dependent study was performed in which the ability of 3 to inhibit biofilm development was measured under increasing Fe(II) concentration. […]
Inhibition assays were performed by taking an overnight culture of bacterial strain and subculturing it at an OD600 of 0.01 into the necessary media (brain heart infusion for E. faecium, tryptic soy broth with a 0.5% glucose supplement (TSBG) for MRSA, Luria-Bertani (LB) media for MDRAB, Luria-Bertani media without NaCl (LBNS) for PAO1 and tryptic soy broth with a 0.5% glucose supplement and a 3.0% NaCl supplement (TGN) for S. epidermidis. Stock solutions of predetermined concentrations of the 2-(2-amino-1H-benzo[d]imidazol-6-ylcarbamoyl)-3,4,5,6-tetrachlorobenzoic acid hydrochloride were then made in the necessary media. […] Biofilm inhibition was quantitated by measuring the OD540 of each well in which a negative control lane wherein no biofilm was formed served as a background and was subtracted out.

S. epidermidis = assay: Dispersion of preformed S. epidermidis biofilm; type: cell-based, Staphylococcus epidermidis; conditions: concentration that disperses 50% of a pre-formed biofilm
Method: (§1) A dose-response study was then initiated in which both the IC50 and EC50 value of each compound towards the bacterial strains were determined (Table 1). Here, IC50 is defined as the concentration of compound that inhibits 50% biofilm development while EC50 is defined as the concentration of compound that disperses 50% of a pre-formed biofilm.
(§2) Procedure to Determine the Dispersal Effect of Test Compounds on E. faecium, MRSA and S. epidermidis Preformed Biofilms:
(§3) Dispersion assays were performed by taking an overnight culture of bacterial strain and subculturing it at an OD600 of 0.01 into the necessary media (brain heart infusion for E. faecium, tryptic soy broth with a 0.5% glucose supplement (TSBG) for MRSA and tryptic soy broth with a 0.5% glucose supplement and a 3.0% NaCl supplement (TGN) for S. epidermidis. The resulting bacterial suspension was aliquoted (100 μL) into the wells of a 96-well PVC microtiter plate. Plates were then wrapped in GLAD Press n′ Seal® followed by an incubation under stationary conditions at ambient temperature to establish the biofilms. After 24 h, the media was discarded from the wells and the plates were washed thoroughly with water. Stock solutions of predetermined concentrations of the test compound were then made in the necessary media. These stock solutions were aliquoted (100 μL) into the wells of the 96-well PVC microtiter plate with the established biofilms. Media alone was added to a subset of the wells to serve as a control. Sample Plates were then incubated for 24 h at 37° C. After incubation, the media was discarded from the wells and the plates were washed thoroughly with water. Plates were then stained with 100 μL of 0.1% solution of crystal violet (CV) and then incubated at ambient temperature for 30 min. Plates were washed with water again and the remaining stain was solubilized with 200 μL of 95% ethanol. A sample of 125 μL of solubilized CV stain from each well was transferred to the corresponding wells of a polystyrene microtiter dish. Biofilm dispersion was quantitated by measuring the OD540 of each well in which a negative control lane wherein no biofilm was formed served as a background and was subtracted out.

[2] = 1H NMR binding control experiment with FeSO4; conditions: 0, 0.5, or 1.0 equivalents FeSO4
Method: Given this Zn(II)-dependence, the ability of 3 to bind zinc directly was determined to ascertain if the mechanism was potentially occurring via a Zn(II)-binding mechanism. To answer this question, an ^1H NMR binding experiment was performed in which the chemical shifts of 3 were measured in the presence of 0 equivalents, 0.5 equivalents, and 1.0 equivalents ZnCl2. […] As a control, the same experiment was performed with FeSO4.

[3] = tested on: vancomycin-resistant Enterococcus faecium (VRE); assay: Dispersion of preformed VRE (E. faecium) biofilm; type: cell-based; conditions: concentration that disperses 50% of a pre-formed biofilm
Method: as §1, §2, §3

[4] = tested on: vancomycin-resistant Enterococcus faecium (VRE); assay: Inhibition of VRE (E. faecium) biofilm formation (crystal violet); type: cell-based
Method: as §1
Procedure to Determine the Inhibitory Effect of Test Compounds on E. faecium, MRSA, S. epidermidis, PAO1 and MDRAB Biofilm Formation:
(§4) Inhibition assays were performed by taking an overnight culture of bacterial strain and subculturing it at an OD600 of 0.01 into the necessary media (brain heart infusion for E. faecium, tryptic soy broth with a 0.5% glucose supplement (TSBG) for MRSA, Luria-Bertani (LB) media for MDRAB, Luria-Bertani media without NaCl (LBNS) for PAO1 and tryptic soy broth with a 0.5% glucose supplement and a 3.0% NaCl supplement (TGN) for S. epidermidis. Stock solutions of predetermined concentrations of the test compound were then made in the necessary media. These stock solutions were aliquoted (100 μL) into the wells of the 96-well PVC microtiter plate. Sample plates were then wrapped in GLAD Press n′ Seal® followed by an incubation under stationary conditions for 24 h at 37° C. After incubation, the media was discarded from the wells and the plates were washed thoroughly with water. Plates were then stained with 100 μL of 0.1% solution of crystal violet (CV) and then incubated at ambient temperature for 30 min. Plates were washed with water again and the remaining stain was solubilized with 200 μL of 95% ethanol. A sample of 125 μL of solubilized CV stain from each well was transferred to the corresponding wells of a polystyrene microtiter dish. Biofilm inhibition was quantitated by measuring the OD540 of each well in which a negative control lane wherein no biofilm was formed served as a background and was subtracted out.
as §4, with “2-(2-amino-1H-benzo[d]imidazol-6-ylcarbamoyl)-3,4,5,6-tetrachlorobenzoic acid hydrochloride” for “test compound”, “media. Samples were then doped with 10.0 μM FeSO4 with samples with no test compound to examine effects of 10.0 μM FeSO4 on biofilm formation.” for “media.”

Nc1nc2ccc(NC(=O)c3c(Cl)c(Cl)c(Cl)c(Cl)c3C(=O)O)cc2[nH]1 [Compound 3, 2-(2-amino-1H-benzo[d]imidazol-6-ylcarbamoyl)-3,4,5,6-tetrachlorobenzoic acid hydrochloride]
effect of Fe(II) on biofilm inhibitory activity [1]: not affected by increasing Fe(II) concentrations
effect of Fe(II) on biofilm inhibitory activity ([1]; listed as 2-(2-amino-1H-benzo[d]imidazol-6-ylcarbamoyl)-3,4,5,6-tetrachlorobenzoic acid hy): no effect on biofilm inhibitory activity
EC50 (S. epidermidis; Staphylococcus epidermidis): 7.25 µM
EC50 (S. epidermidis; hydrochloride): 7.3 µM
change in NMR signal with FeSO4 [2]: No change
EC50 [3]: 74.8 µM
EC50 ([3]; hydrochloride): 75 µM
IC50 [4]: 1.4 µM

Source: patent publication US9221765B2, “Inhibition and dispersion of bacterial biofilms with benzimidazole derivatives” (North Carolina State University, priority 2009, dated 2015)
